The values below are quoted from earlier work in US20130089611A1, “RASAGILINE CITRAMIDE” (TEVA PHARMACEUTICAL INDUSTRIES, LTD., priority 2011, published 2013).

The conditions of the data set: in vivo.

The structures appear in SMILES notation.

Consider `C#CCN[C@@H]1CCc2ccccc21` [rasagiline, R(+)-N-propargyl-1-aminoindan], for which the absolute bioavailability entry is listed as “about 36%”.
